In patent US20110166195A1, “METHOD FOR THE FORMATION OF MEGAMITOCHONDRIA” (priority 2008, published 2011):
“Also recorded” adds a separate entry of the source. Where a name gives a salt, the structure may show the parent alone.

What was measured:
[1] = system: 143B.TK−K7gm cells with megamitochondria; assay: Back-formation of megamitochondria after exchange of acidic medium in drug-treated cells; assay type: cell-based, Human; conditions: fresh medium also with drug; for back-formation of megamitochondria: 6 μM nocodazol or 2.4 mM cytochalasin B for 3 hours, observed one and three hours after medium exchange; for back-formation of megamitochondria (mitochondrial morphology after medium exchange): 10 μM CCCP, 10 μM valinomycin or 1 μM nigericin for 30 minutes, analysed 60 minutes after medium exchange
Method: (C) 143B.TK^−K7gm cells with megamitochondria were incubated with 10 μM CCCP (C A1, B1), 10 μM valinomycin (C A2, B2) or 1 μM nigericin (C A3, B3) for 30 minutes. 60 Minutes after medium exchange (ME) the mitochondrial morphology was analysed. Untreated controls are shown in A A4 and C A4, B4. Calibration marks correspond to 10 μm.
(B) The influence of the actin cytoskeleton on the back-formation of megamitochondria in 143B.TK^−K7gm cells was tested by treatment with 2.4 μM cytochalasin B (A1, A2, C1, D1) or an an equivalent amount of solvent as control (B1, B2, C2, D2) for 3 hours. Mitochondrial morphology was analyzed one (C1, C2) or three hours (D1, D2) after medium exchange. Staining of action cytoskeleton was carried out by Alexa Fluor […] phalloidin in fixed cells (A2, B2).
143B.TK^−K7gm cells with megamitochondria were incubated for 3 hours with 6 μM nocodazol (A1, A2, C1, D1) or as control with an equivalent amount solvent (B1, B2, C2, D2). The analysis of mitochondrial changes in structure were carried out 1 hour (C1, C2) or 3 hours (D1, D2) after the exchange of acidic medium. Arrow heads indicate abnormal ring shaped mitochondrial structures persisting for at least 3 hours. Calibration bars correspond to 10 μm.
(§1) Drugs (final concentrations 6-10 μM nocodazol, 2.4-4 μM cytochalasin B, 10 μM CCCP, 10 μM valinomycin and 1 μM nigericin) were added to standard culture medium at different stages of megamitochondria development.
(§2) To avoid a cross talk in excitation of multiple stained compounds always a sequential scanning mode was used in confocal microscopy.
To investigate the influence of the different chemicals on the back-formation of megamitochondria the cells were incubated with indicated concentrations of CCCP, valinomycin and nigericin for 30 minutes (FIG. 4C).
The influence of tubulin and actin cytoskeleton inhibition on back-formation of megamitochondria was performed with 143B.TK^− K7 gm cells with megamitochondria 3 hours after incubating the cells with 6 μM nocodazol or […] cytochalasin B. After changing the used acidic medium and its replacement by fresh medium also completed by the drugs structural changes of mitochondria were observed one hour and three hours later.

143B.TK−K7gm cells [2] = assay: Formation of megamitochondria in drug-treated cells (fluorescence/confocal microscopy of EGFP-Mito); assay type: cell-based, Human
Method: (A) 24 h after seeding 143B.TK^−K7gm cells were incubated with 10 μM CCCP (A A1), 10 μM valinomycin (A A2, B) or 1 μM nigericin (A A3) for 18 h.
(§3) (A) 143B.TK^−K7gm cells stained with EGFP-Mito were treated with 4 μM cytochalasin B (A1, A2, B1, B2) at different cultivation times for 9-15 hours or an equivalent amount of solvent as control (A3, A4, B3, B4). Staining of actin cytoskeleton was achieved by Alexa Fluor […] phalloidin in fixed cells (A2, B2, A4, B4). Arrow heads indicate round areas in the cytoplasm observable by actin staining after 62 hours cultivation time.
143B.TK^−K7gm cells were treated with 10 μM nocodazol at different cultivation times for 9-15 hours (A1, A2, B1, B2) or as control with an equivalent amount solvent (A3, A4, B3, B4). The morphology of mitochondria is shown by in vivo EGFP-Mito-staining in the images A1, B1, C1, A3, B3, C3. The staining of tubulin cytoskeleton was performed by an antibody against alpha-tubulin and a Cy3-coupled secondary antibody in fixed cells (A2, B2, A4, B4). Calibration bars correspond to 10 μm.
as §1, §2
To investigate the influence of the mitochondrial membrane potential on the formation and back formation of the megamitochondria 143B.TK^−K7gm cells were incubated with 10 μM CCCP (H^+ ionophore), 10 μM valinomycin (K^+ selective ionophore) and 1 μM nigericin (selective electron neutral K^+/H^+ exchange) (FIG. 4).
(§4) To observe the influence of the tubulin or actin cytoskeleton, respectively, on the formation of megamitochondria 143B.TK^−K7 gm cells were incubated with 10 μM nocodazol or […] cytochalasin B for 9-15 hours.

tubulin polymerisation = assay: Immunocytochemical staining of tubulin cytoskeleton with antibody against alpha-tubulin; assay type: cell-based, Human; conditions: 10 μM nocodazol for 9-15 hours, 143B.TK−K7gm cells
Method: 143B.TK^−K7gm cells were treated with 10 μM nocodazol at different cultivation times for 9-15 hours (A1, A2, B1, B2) or as control with an equivalent amount solvent (A3, A4, B3, B4). […] The staining of tubulin cytoskeleton was performed by an antibody against alpha-tubulin and a Cy3-coupled secondary antibody in fixed cells (A2, B2, A4, B4).
Cells grown on cover slips were treated as indicated, fixed with methanol (−20° C.) for 5 min and permeabilized with 0.2% Triton X-100 in PBS for 5 min at room temperature. After washing three times with PBS (5 min), the blocking reaction was performed with 100 mM glycine in PBS for 10 min following 3% BSA in PBS for 30 min at room temperature.
Subsequently cover slips were incubated with mouse anti-alpha tubulin polyclonal primary antibody diluted 1:50 in 1% BSA in PBS at 4° C. over night. After washing the cells three times with PBS (5 min), the cover slips were incubated with Cy3-conjugated goat secondary antibody in 10% goat serum in PBS for 1 h at room temperature. The cells were washed three times with PBS (7 min) prior to mounting in Mowiol and analysed by fluorescence microscopy.

[3] = system: 143B.TK−K7gm cells with megamitochondria; assay: Back-formation of megamitochondria by changes of culture medium; assay type: cell-based, Human; conditions: one hour
Method: Similar experiments were carried out to investigate the back-formation of megamitochondria (FIG. 9). To this end, 143B.TK^−K7 gm cells with megamitochondria were incubated in medium complemented with different additions. Changes of pH value were reached by the addition of 0.04-0.2 mM NaOH into the used culture medium as well as by the addition of HCl and lactic acid, respectively, of values 7.0-5.6 in fresh culture medium. Moreover, the influence of high concentrations of sodium lactate on the back-formation of megamitochondria was analysed by adding 20-210 mM sodium lactate, pH 7.4 into fresh medium without changing the pH value. Treatment of cells with different media was performed for one hour, thereafter the mitochondrial morphology was analysed by fluorescence microscopy.

actin cytoskeleton = assay: Staining of actin cytoskeleton by phalloidin in fixed cells; assay type: cell-based, Human; conditions: 4 mM cytochalasin B for 9-15 hours, 143B.TK−K7gm cells
Method: as §3
For detection of the actin cytoskeleton cells on cover slips treated as indicated were fixed with 3.7% formaldehyde in PBS for 10 min at room temperature and after three washes in PBS for 5 min permeabilized with 0.1% Triton X-100 in PBS for 5 min. After additional washing steps with PBS (5 min) cells were blocked with 1% BSA in PBS for 30 min at room temperature and incubated with 1 unit (5 μl) Alexa Fluor 546 Phalloidin in 1% BSA in PBS for 20 min at room temperature. After washing the cells three times with PBS for 7 min, the cover slips were mounted with Mowiol and analysed with the confocal microscope.
as §4

143B.TK−gm cells = assay: Induction of megamitochondria by changes of culture medium; assay type: cell-based, Human; conditions: medium with HCl or lactic acid (pH 6.7-5.3) or 30-180 mM sodium lactate (pH 7.4 maintained); one hour
Method: (§5) The induction of megamitochondria formation was done by the transfer of acidic medium from 143B.TK^− K7 ρ^0 cells and by an artificial acidification of fresh medium with lactic acid, pH 6.0-6.3. Additional changes of culture medium were performed by an acidification of the medium with HCl, addition of 30-180 mM sodium lactate and 1.3-2.0 mM NaOH.
(§6) To test whether megamitochondria can be induced by extrinsic changes of pH value or lactic acid concentration in the culture medium 143B.TK^−K7gm, 143B.TK^−gm and HeLa were incubated with medium complemented with HCl and lactic acid, respectively (pH 6.7-5.3). Additionally, the influence of high concentrations of sodium lactate (30-180 mM) on the megamitochondria formation was determined without changing the pH. A pH value of 6.7-6.8 and a lactate concentration of 30 mM corresponds to the measured values in the analysed cultivation medium of 143B.TK^−K7 cells. Incubation of cells was carried out for one hour with subsequent analyses of mitochondrial morphology in vivo.

HeLa cells = assay: as above; assay type: cell-based; conditions: medium with HCl or lactic acid (pH 6.7-5.3) or 30-180 mM sodium lactate (pH 7.4 maintained); one hour
Method: as §5, §6

143B.TK−K7gm cells [4] = assay: as above; assay type: cell-based, Human; conditions: medium with HCl or lactic acid (pH 6.7-5.3) or 30-180 mM sodium lactate (pH 7.4 maintained); one hour
Method: as §5, §6

143B.TK−K7 cells = assay: Mitochondrial membrane potential by JC-1 staining (confocal microscopy); assay type: cell-based, Human; conditions: 10 μM CCCP for 30 minutes before JC-1; 24 and 62 hours cultivation time
Method: Documentation at 24 hours (A1-A3, B1-B3) and 62 hours (C1-C3, D1-D3) cultivation time by JC-1-staining. The red fluorescence of J-aggregates (A1, B1, C1, D1) as well as the green monomer form (A2, B2, C2, D2) were analysed simultaneously by excitation wavelength of 488 nm. Images A3, B3, C3, D3 show overlays. Calibration bars correspond to 10 μm.
To measure differences in mitochondrial membrane potential between the various stages of megamitochondria formation and control cells the dual emission of the potentiometric dye JC-1 was observed. The cells either were incubated directly with 3 μM JC-1 diluted in the standard culture medium and filtered once with 0.2 μm syringe filter for 30 min at 37° C. or first treated with CCCP (final concentration 10 μM) for 30 min for the comparison of cells without membrane potential. The cells were viewed in vivo with the inverse confocal laser scanning microscope (simultaneous excitation of red and green fluorescence by 488 nm wavelength) to observe local differences in the mitochondrial membrane potential.
To determine the mitochondrial membrane potential during the formation of megamitochondria 143B.TK^−K7 cells were either directly stained with JC-1 […] or incubated with […] CCCP for 30 minutes before. […]

[5] = 10 μM nocodazol or 4 mM cytochalasin B for 9-15 hours
[6] = 10 μM CCCP, 10 μM valinomycin or 1 μM nigericin for 18 h, 24 h after seeding

Structure (SMILES)	induction of megamitochondria (143B.TK−gm cells)	induction of megamitochondria (HeLa cells)	induction of megamitochondria (143B.TK−K7gm cells [4])	back-formation of megamitochondria (mitochondrial morphology after medium exchange) [1]	formation of megamitochondria (143B.TK−K7gm cells [2]; [6])	also measured
COC(=O)Nc1nc2ccc(C(=O)c3cccs3)cc2[nH]1 [nocodazol]	–	–	–	–	–	back-formation of megamitochondria [1]: only minor influence on back-formation of megamitochondria; formation of megamitochondria (143B.TK−K7gm cells [2]; [5]): no influence of the tubulin cytoskeleton on the formation of megamitochondria; inhibition of tubulin polymerisation (alpha-tubulin staining) (tubulin polymerisation): Complete inhibition of tubulin polymerisation
[Na+].[OH-] [NaOH]	–	–	–	–	–	back-formation of megamitochondria ([3]; 1.3 mM NaOH added into the acidic medium): did not lead to the back-formation of megamitochondria; also recorded: did not lead to the back formation of megamitochondria; back-formation of megamitochondria ([3]; 2.0 mM NaOH added into the acidic medium): resulted in a change in mitochondrial morphology from spherical forms to tubules and network-like structures; also recorded: sufficient to induce the back-formation of megamitochondria
C=C1[C@@H](C)[C@H]2[C@H](Cc3ccccc3)NC(=O)[C@]23OC(=O)/C=C/[C@H](O)CCC[C@@H](C)C/C=C/[C@H]3[C@@H]1O [cytochalasin B]	–	–	–	–	–	back-formation of megamitochondria [1]: severe influence on megamitochondria back-formation; effectiveness of drug treatment on actin cytoskeleton (phalloidin staining) (actin cytoskeleton): confirming the effectiveness of drug treatment; formation of megamitochondria (143B.TK−K7gm cells [2]; [5]): prevented formation of megamitochondria
Cl [HCl]	not possible	not possible	not possible	–	–	back-formation of megamitochondria ([3]; fresh medium acidified with HCl, pH 6.0): did not change their form; back-formation of megamitochondria ([3]; fresh medium acidified with HCl, pH 7.0): formed back to a tubular network
CC(C)[C@@H]1NC(=O)[C@H](C)OC(=O)[C@@H](C(C)C)NC(=O)[C@@H](C(C)C)OC(=O)[C@H](C(C)C)NC(=O)[C@H](C)OC(=O)[C@@H](C(C)C)NC(=O)[C@@H](C(C)C)OC(=O)[C@H](C(C)C)NC(=O)[C@H](C)OC(=O)[C@@H](C(C)C)NC(=O)[C@@H](C(C)C)OC1=O [valinomycin]	–	–	–	inhibited the back-formation of megamitochondria	led to the formation of megamitochondria with diameters exceeding the control cells	–
CC(O)C(=O)O (centres unmarked) [lactic acid]	led to the formation of megamitochondria	led to the formation of megamitochondria	led to the formation of megamitochondria	–	–	back-formation of megamitochondria ([3]; fresh medium acidulated with lactic acid, pH 6.8): the spherical mitochondria changed to a tubular network; back-formation of megamitochondria ([3]; fresh medium acidulated with lactic acid, pH 7.0): resulted in the back-formation of megamitochondria
CO[C@@H]1C[C@@H](C[C@H]2CC[C@H](C)[C@H]([C@@H](C)C(=O)O)O2)O[C@]2(O[C@](C)([C@H]3CC[C@@](C)([C@@H]4O[C@@H]([C@H]5O[C@@](O)(CO)[C@H](C)C[C@@H]5C)C[C@@H]4C)O3)C[C@H]2C)[C@@H]1C [nigericin]	–	–	–	comparable to the control cells	inhibited	–
N#CC(C#N)=NNc1cccc(Cl)c1 [CCCP]	–	–	–	comparable to the control cells	inhibited	mitochondrial membrane potential (JC-1 red/green fluorescence) (143B.TK−K7 cells): the red fluorescence was clearly less distinct
CC(O)C(=O)[O-].[Na+] (centres unmarked) [sodium lactate]	not possible	not possible	not possible	–	–	back-formation of megamitochondria ([3]; fresh medium with 20-210 mM sodium lactate, pH 7.4): led to the back-formation of megamitochondria in all used concentrations
